Measured values: patent US6852888B2, “Carboxylic acid derivatives” (Syngenta Crop Protection, Inc., priority 1998, dated 2005)

Columns and labels:
Aphis craccivora = test: Action against Aphis craccivora; type: in vivo; conditions: 400 ppm spray on infested pea seedlings, 20° C., evaluated 3 and 6 days later, read-out: percentage reduction in population (% activity)
Experimental: Action against Aphis craccivora
Pea seedlings are infested with Aphis craccivora, subsequently sprayed with a spray mixture comprising 400 ppm of the test compound and incubated at 20° C. The evaluation is carried out 3 and 6 days later. The percentage reduction in population (% activity) is determined by comparing the number of dead aphids on the treated plants with that on the untreated plants.

Myzus persicae = test: Systemic action against Myzus persicae; type: in vivo; conditions: pea seedlings with roots in spray mixture of 400 ppm, 20° C., evaluated 3 and 6 days later
Experimental: Systemic Action against Myzus persicae
Pea seedlings are infested with Myzus persicae, and then placed with their roots in a spray mixture comprising 400 ppm of the test compound and incubated at 20° C. The evaluation is carried out 3 and 6 days later. The percentage reduction in population (% activity) is determined by comparing the number of dead aphids on the treated plants with that on the untreated plants.

Tetranychus urticae = test: Action against Tetranychus urticae; type: in vivo; conditions: 400 ppm spray on young bean plants, mixed population, 6 days at 25° C.
Experimental: Action against Tetranychus urticae
Young bean plants are populated with a mixed population of Tetranychus urticae and sprayed one day later with an aqueous emulsion spray mixture comprising 400 ppm of the test compound. The plants are then incubated for 6 days at 25° C. and subsequently evaluated. The percentage reduction in population (% activity) is determined by comparing the number of dead eggs, larvae and adults on the treated plants with that on the untreated plants.

SMILES: Cc1cc(OC(F)(F)C(F)Cl)ccc1NC(=O)CCCC=C(F)F (stereo not shown) [Compound 1.1, 6,6-Difluorohex-5-enoic acid [4-(2-chloro-1,1,2-trifluoroethoxy)-2-methylphenyl]amide]
- inhibition at 400 ppm (Aphis craccivora): > 80%
- melting point: 59 to 60 °C

SMILES: O=C(CCCC=C(F)F)Nc1ccc(OC(F)(F)C(F)F)cc1 [Compound 1.3]
- percentage reduction in population (% activity) (Myzus persicae): more than 80%

SMILES: O=C(CCCC=C(F)F)Nc1cccc(OC(F)(F)C(F)F)c1 [Compound 1.17]
- percentage reduction in population (% activity) (Tetranychus urticae): more than 80%
